Source: patent US20200197439A1, “IMM[…] POLYOMAVIRUSES” (Atara Biotherapeutics, Inc., priority 2016, published 2020)

What follows are sequences tested on CD8+ T cells (assay: HLA restriction of mapped CD8+ BKV epitopes (ICS with peptide loaded HLA-matched and mismatched LCLs)). Conditions: CD8+ epitopes mapped in this study; T cells stimulated with peptide loaded HLA-matched and mismatched LCLs.
Assay type: cell-based, human
Description: In order to characterize the T cell responses directed towards these antigens and precisely map the HLA class I and class II-restricted T cell responses, individual overlapping peptides (15 aa long overlapping by 10 aa) were sourced for LTA, STA and VP1 proteins for T cell epitope mapping. A two-dimensional peptide matrix was used to distribute all individual peptides into small overlapping peptide pools. The matrix is set up in the way that each peptide occurs once on the ordinate (FIG. 3). These peptide pools were used in ICS assays. After the ICS analysis, T cell response to the peptide pools was compared with the matrix to identify individual peptides. These individual peptides were further assessed for T cell expansion and ICS analysis to identify potential BK. Once the 15 mer peptide was identified, further mimimalization of the epitope sequence was carried out to identify the optimal T cell epitope sequence. The 15 mer peptide sequences were trimmed from both N- and C-terminus to a minimal of 9 aa long peptides. Once the minimal peptide sequence was identified, further confirmation was carried out using limiting dose titration ICS assay. After mapping minimal epitope sequence, the HLA restriction of the epitope was identified by stimulating T cells using peptide loaded HLA-matched and mismatched LCLs. […]

Row | Sequence | HLA Restriction
1 | VKNPYPISFLL (BK polyomavirus) | Cw*07

These sequences were tested on CD4+ T cells (assay: HLA restriction of mapped CD4+ BKV epitopes (ICS with peptide loaded HLA-matched and mismatched LCLs)). Conditions: CD4+ epitopes mapped in this study; T cells stimulated with peptide loaded HLA-matched and mismatched LCLs.
Assay type: cell-based, human
Description: In order to characterize the T cell responses directed towards these antigens and precisely map the HLA class I and class II-restricted T cell responses, individual overlapping peptides (15 aa long overlapping by 10 aa) were sourced for LTA, STA and VP1 proteins for T cell epitope mapping. A two-dimensional peptide matrix was used to distribute all individual peptides into small overlapping peptide pools. The matrix is set up in the way that each peptide occurs once on the ordinate (FIG. 3). These peptide pools were used in ICS assays. After the ICS analysis, T cell response to the peptide pools was compared with the matrix to identify individual peptides. These individual peptides were further assessed for T cell expansion and ICS analysis to identify potential BK. Once the 15 mer peptide was identified, further mimimalization of the epitope sequence was carried out to identify the optimal T cell epitope sequence. The 15 mer peptide sequences were trimmed from both N- and C-terminus to a minimal of 9 aa long peptides. Once the minimal peptide sequence was identified, further confirmation was carried out using limiting dose titration ICS assay. After mapping minimal epitope sequence, the HLA restriction of the epitope was identified by stimulating T cells using peptide loaded HLA-matched and mismatched LCLs.
In order to map the T cell epitope further analysis was carried out using sub pools of STA peptides (12 pools) designed based on the two dimensional matrix shown in FIG. 3. […] Similar epitope mapping process was carried out for other CD4^+ and CD8^+ T cell epitopes.

Row | Sequence | HLA Restriction
2 | CFTQWFGLDLTEETL [JCV variant […]] | DRB1*03/04
3 | FNVPKRRYWLFKGPI [JCV variant […]] | DRB1*15
4 | GGDEDKMKRMNTLYK [JCV variant […]] | DRB1*13
5 | GTQQWRGLARYFKIR [JCV variant […]] | DRB1*11/8
6 | KMKRMNTLYKKMEQD [JCV variant […]] | DRB1*13
7 | RGLARYFKIRLRKRS [JCV variant […]] | DRB1*11
8 | RKAYLRKCKEFHPDK [JCV variant […]] | DRB1*13
9 | RRYWLFKGPIDSGKT [JCV variant […]] | DRB1*15
10 | WDEDLFCHEDMFASD [JCV variant […]] | DQB5*01
